Test results published in patent US12492410B2, “Engineered cytolytic immunecell” (Autolus Limited, priority 2018, dated 2025).

What was measured:
[1] = system: minocycline dAb (SEQ ID NO: 8); assay: Phage-peptide screening for minocycline-displaceable binding to minocycline dAb; conditions: for displaceable specificity for minocycline dAb: minocycline dAb-Fc immobilised on beads, with and without 1 μM minocycline, control antibody SEQ ID NO: 13; for affinity of peptide for minocycline dAb: stated in words
Method: FIG. 4—Graphs showing minocycline displaceable binding of peptides SEQ ID NO: 34, SEQ ID NO: 35, SEQ ID NO: 36 and SEQ ID NO: 37 to minocycline dAb (SEQ ID NO: 8) versus control antibody (SEQ ID NO: 13).
A minocycline dAb-Fc was immobilised on beads. The minocycline dAb was encoded by SEQ ID NO: 8. Phage-peptide colony screening was performed with and without 1 μM minocycline.
An antibody comprising SEQ ID NO: 13 was used as a control antibody (the control antibody comprises different CDRs to SEQ ID NO: 8).

HEK293T cells = assay: Minocycline induced secretion of ER retained IL12, IL12 ELISA of supernatant; format: cell-based; conditions: IL12 fused to the peptide, in the presence of KDEL anchored minocycline dAb; minocycline 0 μM; all time points (2 and 4 hours)
Method: FIGS. 5A, 5B and 5C—Minocycline induced secretion of ER retained IL12 HEK293T cells were transiently transfected with constructs expressing the intracellular KDEL tagged anti-minocycline dAb and dAb-specific peptide (GWARA or PWAYS) tagged IL-12 (A). Transfection efficiency determined by staining for HA marker expression with transfection efficiency ranging from 50-70% (B). […] Supernatant was collected 2 and 4 hours post minocycline addition and IL12 ELISA readout carried out (C).
The KDEL amino acid sequence was used to retain proteins within the ER/Golgi apparatus. The minocycline specific dAb was tagged with the KDEL sequence (SEQ ID NO: 29) thus anchoring it within with the ER/Golgi and a molecule of interest (IL12) is in turn tagged with the peptide with affinity to the dAb causing its retention. Upon addition of minocycline, the dAb-peptide complex dissociates enabling secretion of the peptide-tagged molecule.
HEK293T cells were seeded at […] in 96-well plates to achieve confluency of 50-60% for next day transfection. A transfection master mix was made by adding 30 μL of GeneJuice transfection reagent to 470 μL plain IMDM and incubating for 5 minutes. For each well, 0.13 μg of plasmid DNA was then added to 5.2 uL of the IMDM-Genejuice master mix and incubated for 15 minutes. Transfection mix containing the GeneJuice-DNA complex was then added to the cells. […]

Chain of minocycline dAb (SEQ ID NO: 8) (as listed by the source): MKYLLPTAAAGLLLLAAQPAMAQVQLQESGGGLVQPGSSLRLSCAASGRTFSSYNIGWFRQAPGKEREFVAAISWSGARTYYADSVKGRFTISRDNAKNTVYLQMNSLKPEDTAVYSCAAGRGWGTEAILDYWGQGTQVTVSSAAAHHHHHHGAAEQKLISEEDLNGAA

Row | Sequence | displaceable specificity for minocycline dAb [1] | IL12 secretion (HEK293T cells) | affinity of peptide for minocycline dAb [1]
1 | ACPHWAQAFC (minocycline peptide mimic) [SEQ ID NO: 35] | displaceable specificity |  | 
2 | ACPPWAYSFC (minocycline peptide mimic) [SEQ ID NO: 37] | displaceable specificity | concentration dependent increase | low affinity
3 | ACPGWARAFC (minocycline peptide mimic) [SEQ ID NO: 34] | displaceable specificity | concentration dependent increase | high affinity
4 | ACPQWAMMFC (minocycline peptide mimic) [SEQ ID NO: 36] | displaceable specificity |  | 
